Laboratory results as given in ChEMBL document CHEMBL5032523, “Discovery of thiazolidin-4-one analogue as selective GSK-3β inhibitor through structure based virtual screening” (Bioorg Med Chem Lett, 2021).
Calls of active or inactive are those of the source. No cut-off for these calls is given here.

Columns and labels:
[1] = molecular target: T1, Dual specificity tyrosine-phosphorylation-regulated kinase 1A (Homo sapiens, UniProt Q13627); assay: Inhibition of DYRK1A (unknown origin) at 10 uM relative to control
[2] = molecular target: T2, Cyclin-dependent kinase 5 (Homo sapiens, UniProt Q00535); assay: Inhibition of CDK5 (unknown origin) at 10 uM relative to control
Target sequence in this assay (Q00535 whole entry, looked up): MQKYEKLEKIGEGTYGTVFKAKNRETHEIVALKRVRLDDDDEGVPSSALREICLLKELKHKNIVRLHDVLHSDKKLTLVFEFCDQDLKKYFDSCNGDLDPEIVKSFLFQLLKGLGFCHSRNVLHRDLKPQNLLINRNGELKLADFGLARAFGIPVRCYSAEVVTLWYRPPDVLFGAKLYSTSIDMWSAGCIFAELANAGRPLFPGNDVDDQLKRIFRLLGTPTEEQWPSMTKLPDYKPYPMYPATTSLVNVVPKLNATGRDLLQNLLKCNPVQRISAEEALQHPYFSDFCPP

[3] = molecular target: T3, Cyclin-dependent kinase 9 (Homo sapiens, UniProt P50750); assay: Inhibition of CDK9 (unknown origin) at 10 uM relative to control
T3 sequence (P50750 whole entry): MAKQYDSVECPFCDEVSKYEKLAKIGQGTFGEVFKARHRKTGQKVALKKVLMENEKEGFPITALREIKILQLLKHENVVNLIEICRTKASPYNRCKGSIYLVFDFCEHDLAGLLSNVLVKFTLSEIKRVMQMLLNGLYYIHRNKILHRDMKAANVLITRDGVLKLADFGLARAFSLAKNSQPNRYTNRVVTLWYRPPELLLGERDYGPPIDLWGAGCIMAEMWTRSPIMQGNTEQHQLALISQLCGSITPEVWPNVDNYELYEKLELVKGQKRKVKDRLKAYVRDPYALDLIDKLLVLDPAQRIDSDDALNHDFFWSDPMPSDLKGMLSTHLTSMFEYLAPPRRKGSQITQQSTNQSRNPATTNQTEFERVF

[4] = molecular target: T4, Serine/threonine-protein kinase pim-1 (Homo sapiens, UniProt P11309); assay: Inhibition of PIM1 (unknown origin) at 10 uM relative to control
Target sequence in this assay (P11309 whole entry, looked up): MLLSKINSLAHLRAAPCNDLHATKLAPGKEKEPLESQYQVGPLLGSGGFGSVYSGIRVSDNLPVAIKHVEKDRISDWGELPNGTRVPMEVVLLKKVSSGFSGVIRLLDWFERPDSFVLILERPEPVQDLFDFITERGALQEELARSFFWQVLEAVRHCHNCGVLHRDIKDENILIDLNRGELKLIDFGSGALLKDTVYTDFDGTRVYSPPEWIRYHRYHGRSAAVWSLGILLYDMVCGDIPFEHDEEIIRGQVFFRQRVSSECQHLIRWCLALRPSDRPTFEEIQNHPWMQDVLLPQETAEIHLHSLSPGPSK

[5] = molecular target: T5, Dual specificity protein kinase CLK1 (Homo sapiens, UniProt P49759); assay: Inhibition of CLK1 (unknown origin) at 10 uM relative to control
Target sequence in this assay (P49759 whole entry, looked up): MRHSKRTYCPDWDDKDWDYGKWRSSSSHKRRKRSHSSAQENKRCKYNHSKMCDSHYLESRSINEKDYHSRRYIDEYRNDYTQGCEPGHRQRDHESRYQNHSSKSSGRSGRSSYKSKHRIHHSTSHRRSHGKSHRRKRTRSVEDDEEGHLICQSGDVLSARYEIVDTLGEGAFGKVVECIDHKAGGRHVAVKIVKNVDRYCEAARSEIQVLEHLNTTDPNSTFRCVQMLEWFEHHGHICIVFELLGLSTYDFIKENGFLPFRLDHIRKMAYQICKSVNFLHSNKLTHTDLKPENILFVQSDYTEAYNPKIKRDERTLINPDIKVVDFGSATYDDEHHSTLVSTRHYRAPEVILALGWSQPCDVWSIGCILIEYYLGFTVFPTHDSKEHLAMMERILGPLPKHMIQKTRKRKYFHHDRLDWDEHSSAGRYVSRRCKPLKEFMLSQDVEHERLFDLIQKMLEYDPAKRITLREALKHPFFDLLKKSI

[6] = molecular target: T6, Serine/threonine-protein kinase haspin (Homo sapiens) (UniProt Q8TF76); assay: Inhibition of HASPIN (unknown origin) at 10 uM relative to control
T6 sequence (whole entry): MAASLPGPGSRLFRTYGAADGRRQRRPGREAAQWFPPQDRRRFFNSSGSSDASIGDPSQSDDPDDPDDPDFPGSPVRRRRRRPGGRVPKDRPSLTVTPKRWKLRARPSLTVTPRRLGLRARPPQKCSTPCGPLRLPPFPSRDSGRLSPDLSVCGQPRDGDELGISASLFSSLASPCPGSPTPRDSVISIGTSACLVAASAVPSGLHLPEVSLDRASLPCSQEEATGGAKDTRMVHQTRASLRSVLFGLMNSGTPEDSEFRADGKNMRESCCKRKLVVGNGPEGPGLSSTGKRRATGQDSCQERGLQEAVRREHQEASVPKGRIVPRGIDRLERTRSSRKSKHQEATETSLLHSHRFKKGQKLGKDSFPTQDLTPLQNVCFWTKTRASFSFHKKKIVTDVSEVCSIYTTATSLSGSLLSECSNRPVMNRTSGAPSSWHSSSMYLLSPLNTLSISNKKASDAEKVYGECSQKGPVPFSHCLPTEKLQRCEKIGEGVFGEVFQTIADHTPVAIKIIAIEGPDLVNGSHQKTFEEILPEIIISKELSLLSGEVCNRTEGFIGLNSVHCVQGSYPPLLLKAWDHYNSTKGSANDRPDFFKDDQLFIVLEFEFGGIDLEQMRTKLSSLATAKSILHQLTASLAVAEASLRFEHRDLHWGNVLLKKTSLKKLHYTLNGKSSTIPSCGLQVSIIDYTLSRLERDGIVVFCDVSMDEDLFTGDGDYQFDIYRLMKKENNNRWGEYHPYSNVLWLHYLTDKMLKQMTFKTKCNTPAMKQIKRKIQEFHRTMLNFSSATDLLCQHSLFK

[7] = molecular target: T7, Glycogen synthase kinase-3 beta (Homo sapiens, UniProt P49841); assay: Inhibition of GSK3beta (unknown origin) at 10 uM relative to control
Target sequence in this assay (P49841 whole entry, looked up): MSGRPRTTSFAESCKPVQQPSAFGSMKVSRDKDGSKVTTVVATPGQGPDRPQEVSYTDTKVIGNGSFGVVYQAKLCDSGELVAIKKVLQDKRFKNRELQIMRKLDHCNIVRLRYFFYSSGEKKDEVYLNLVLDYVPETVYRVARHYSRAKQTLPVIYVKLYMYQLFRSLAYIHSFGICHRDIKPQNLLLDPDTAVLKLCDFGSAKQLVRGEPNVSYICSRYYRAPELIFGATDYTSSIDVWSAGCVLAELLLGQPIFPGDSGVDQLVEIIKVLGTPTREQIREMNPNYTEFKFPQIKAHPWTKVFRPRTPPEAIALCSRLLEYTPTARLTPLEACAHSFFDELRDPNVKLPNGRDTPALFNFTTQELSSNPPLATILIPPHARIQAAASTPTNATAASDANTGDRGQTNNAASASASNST

[8] = molecular target: T8, Casein kinase I delta/epsilon (Homo sapiens, UniProt P48730+P49674); assay: Inhibition of CK-1 delta/epsilon (unknown origin) at 10 uM relative to control; assay type: protein-complex assay
Target sequence in this assay (P48730 whole entry, looked up): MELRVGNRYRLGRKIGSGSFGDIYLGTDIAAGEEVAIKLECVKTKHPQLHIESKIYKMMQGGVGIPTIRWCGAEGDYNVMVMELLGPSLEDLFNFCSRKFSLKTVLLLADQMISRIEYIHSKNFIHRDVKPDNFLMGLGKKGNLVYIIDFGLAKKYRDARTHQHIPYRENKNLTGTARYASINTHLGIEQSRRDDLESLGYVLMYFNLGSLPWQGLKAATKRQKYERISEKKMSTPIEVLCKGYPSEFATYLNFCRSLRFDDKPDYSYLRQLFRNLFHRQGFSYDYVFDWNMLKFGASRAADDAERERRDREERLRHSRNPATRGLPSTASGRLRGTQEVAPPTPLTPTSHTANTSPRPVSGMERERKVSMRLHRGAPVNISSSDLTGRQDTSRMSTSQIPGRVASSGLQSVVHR
Target sequence in this assay (P49674 whole entry, looked up): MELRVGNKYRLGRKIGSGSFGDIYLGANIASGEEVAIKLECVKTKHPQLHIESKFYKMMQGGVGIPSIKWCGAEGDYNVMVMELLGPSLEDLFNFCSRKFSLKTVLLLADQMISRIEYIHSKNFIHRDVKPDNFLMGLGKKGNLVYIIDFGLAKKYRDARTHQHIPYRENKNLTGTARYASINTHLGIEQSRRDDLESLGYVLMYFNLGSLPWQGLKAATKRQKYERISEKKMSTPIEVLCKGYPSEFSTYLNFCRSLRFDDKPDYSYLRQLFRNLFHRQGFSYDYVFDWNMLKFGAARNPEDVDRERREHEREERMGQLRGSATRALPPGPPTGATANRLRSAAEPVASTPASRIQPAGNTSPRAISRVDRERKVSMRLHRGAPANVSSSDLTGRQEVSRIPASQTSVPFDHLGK

[9] = molecular target: T2, Cyclin-dependent kinase 5; assay: Inhibition of CDK5 (unknown origin)
Target sequence in this assay (Q00535 whole entry): as the sequence (Q00535 whole entry, looked up) above

[10] = molecular target: T3, Cyclin-dependent kinase 9; assay: Inhibition of CDK9 (unknown origin)
[11] = molecular target: T4, Serine/threonine-protein kinase pim-1; assay: Inhibition of PIM1 (unknown origin)
Target sequence in this assay (P11309 whole entry): as the sequence (P11309 whole entry, looked up) above

[12] = molecular target: T5, Dual specificity protein kinase CLK1; assay: Inhibition of CLK1 (unknown origin)
Target sequence in this assay (P49759 whole entry): as the sequence (P49759 whole entry, looked up) above

[13] = molecular target: T1, Dual specificity tyrosine-phosphorylation-regulated kinase 1A; assay: Inhibition of DYRK1A (unknown origin)
[14] = molecular target: T9, Serine/threonine-protein kinase haspin (Homo sapiens, UniProt Q8TF76); assay: Inhibition of HASPIN (unknown origin)
T9 sequence (Q8TF76 whole entry): T6 sequence (whole entry)

[15] = molecular target: T7, Glycogen synthase kinase-3 beta; assay: Inhibition of GSK3beta (unknown origin)
Target sequence in this assay (P49841 whole entry): as the sequence (P49841 whole entry, looked up) above

[16] = molecular target: T8, Casein kinase I delta/epsilon; assay: Inhibition of CK-1 delta/epsilon (unknown origin); assay type: protein-complex assay
Target sequence in this assay (P48730 whole entry): as the sequence (P48730 whole entry, looked up) above
Target sequence in this assay (P49674 whole entry): as the sequence (P49674 whole entry, looked up) above

[17] = molecular target: T7, Glycogen synthase kinase-3 beta; assay: Non-competitive inhibition of GSK3beta (unknown origin) at 50 uM by ATP competitive assay
Target sequence in this assay (P49841 whole entry, looked up): as the sequence (P49841 whole entry, looked up) above

COc1cc(/C=C2\S/C(=N/c3ccc(C)c(C)c3)NC2=O)ccc1OCc1ccc2ccccc2c1
inhibition [1]: 16% | inhibition [2]: 11% | inhibition [3]: 29% | inhibition [4]: 29% | inhibition [5]: 22% | inhibition [6]: 22% | inhibition [7]: 80% | inhibition [8]: 14% | IC50 [9]: > 10 µM | IC50 [10]: > 10 µM | IC50 [11]: > 10 µM | IC50 [12]: > 10 µM | IC50 [13]: > 10 µM | IC50 [14]: > 10 µM | IC50 [15]: 1.08 µM | IC50 [16]: > 10 µM | inhibition [17]: Active

Clc1cccc(OCCc2cc([C@@H]3CCN(Cc4cccc5ncccc45)C3)n[nH]2)c1
inhibition [1]: inactive | inhibition [2]: inactive | inhibition [3]: 29% | inhibition [4]: 22% | inhibition [5]: 9% | inhibition [6]: 33% | inhibition [7]: 10% | inhibition [8]: 37%

Clc1ccccc1OCCc1cc([C@@H]2CCN(Cc3cccc4ncccc34)C2)n[nH]1
inhibition [1]: inactive | inhibition [2]: inactive | inhibition [3]: 18% | inhibition [4]: 19% | inhibition [5]: 11% | inhibition [6]: inactive | inhibition [7]: 5% | inhibition [8]: 28%

Cc1cc(C)c2cc(CN(CCc3ccccc3)Cc3nnnn3Cc3ccco3)c(=O)[nH]c2c1
inhibition [1]: 6% | inhibition [2]: 7% | inhibition [3]: 23% | inhibition [4]: 16% | inhibition [5]: inactive | inhibition [6]: 29% | inhibition [7]: 25% | inhibition [8]: 12%
